In ChEMBL document CHEMBL6127156, “Azaspirooctane-carboxylates as Novel Activators/Modulators of M4 for the Treatment of Alzheimer's Disease and Parkinson's Disease” (ACS Med Chem Lett, 2024) one finds EC50 data, which are given here for eleven compounds.

The structures appear in SMILES notation. A value given as a limit tells only on which side of the number the result lay.

Common to all, as to format: functional, cell-based
The target in assay [1] is T1, Muscarinic acetylcholine receptor M4 (Homo sapiens, UniProt P08173).
T1 sequence (P08173 whole entry): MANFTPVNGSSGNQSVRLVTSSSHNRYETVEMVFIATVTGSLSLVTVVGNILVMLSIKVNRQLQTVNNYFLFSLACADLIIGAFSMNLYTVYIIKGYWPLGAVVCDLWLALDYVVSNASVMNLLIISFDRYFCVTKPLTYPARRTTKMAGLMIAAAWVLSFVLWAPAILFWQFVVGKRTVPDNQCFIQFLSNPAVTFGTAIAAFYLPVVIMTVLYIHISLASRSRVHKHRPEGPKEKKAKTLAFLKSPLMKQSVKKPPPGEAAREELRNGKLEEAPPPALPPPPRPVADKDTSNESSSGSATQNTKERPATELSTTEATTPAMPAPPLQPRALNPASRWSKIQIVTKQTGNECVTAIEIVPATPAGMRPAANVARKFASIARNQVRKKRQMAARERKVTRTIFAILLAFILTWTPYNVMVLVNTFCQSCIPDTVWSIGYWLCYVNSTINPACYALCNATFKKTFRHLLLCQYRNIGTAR
Nature of the assay: Modulatory activity at M4 receptor (unknown origin) expressed in CHO-K1 cells assessed as cAMP production by TR-FRET analysis.

Assay [2] concerns the target T2, Muscarinic acetylcholine receptor M1 (Homo sapiens, UniProt P11229).
T2 sequence (P11229 whole entry): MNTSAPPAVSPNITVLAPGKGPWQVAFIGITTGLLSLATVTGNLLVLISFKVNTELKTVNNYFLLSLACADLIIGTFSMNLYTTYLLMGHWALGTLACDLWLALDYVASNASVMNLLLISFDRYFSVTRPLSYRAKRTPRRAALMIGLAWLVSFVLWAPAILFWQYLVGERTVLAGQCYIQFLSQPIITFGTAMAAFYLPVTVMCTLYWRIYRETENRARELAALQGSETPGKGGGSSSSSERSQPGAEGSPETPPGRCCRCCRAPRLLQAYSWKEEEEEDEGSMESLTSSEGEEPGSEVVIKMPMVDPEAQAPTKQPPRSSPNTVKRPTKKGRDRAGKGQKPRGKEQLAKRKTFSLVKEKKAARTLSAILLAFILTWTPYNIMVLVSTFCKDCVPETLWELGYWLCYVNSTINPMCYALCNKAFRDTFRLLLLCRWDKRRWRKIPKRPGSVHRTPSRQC
Nature of the assay: Modulatory activity at M1 receptor (unknown origin) expressed in CHO-K1 cells assessed as intracellular calcium flux incubated for 30 mins by Fluo-8 dye based FLIPR analysis. On the technique in general: Calcium assays in cells follow changes in intracellular calcium, usually with a dye or a luminescent sensor.

Assay [3] concerns the target T3, Muscarinic acetylcholine receptor M2 (Homo sapiens, UniProt P08172).
T3 sequence (P08172 whole entry): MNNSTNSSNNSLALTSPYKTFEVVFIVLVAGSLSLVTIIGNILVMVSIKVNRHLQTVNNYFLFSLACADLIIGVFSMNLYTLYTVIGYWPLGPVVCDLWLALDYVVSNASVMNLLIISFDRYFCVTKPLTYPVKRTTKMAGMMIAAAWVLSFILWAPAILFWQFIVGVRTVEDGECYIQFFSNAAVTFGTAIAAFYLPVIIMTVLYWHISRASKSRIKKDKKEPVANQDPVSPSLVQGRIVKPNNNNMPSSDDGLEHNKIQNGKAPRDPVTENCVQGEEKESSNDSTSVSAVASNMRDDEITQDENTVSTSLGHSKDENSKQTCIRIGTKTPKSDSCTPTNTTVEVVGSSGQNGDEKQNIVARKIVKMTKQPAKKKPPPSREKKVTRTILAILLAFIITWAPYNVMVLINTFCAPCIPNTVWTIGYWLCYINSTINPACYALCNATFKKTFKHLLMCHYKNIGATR
The assay is described as follows: Modulatory activity at M2 receptor (unknown origin) expressed in CHO-K1 cells assessed as cAMP production by TR-FRET analysis. (Cyclic AMP is a second messenger, typically raised through Gs and lowered through Gi signalling.)

In assay [4] the target is Muscarinic acetylcholine receptor M3 (Homo sapiens, UniProt P20309). The assay is described as follows: Modulatory activity at M3 receptor (unknown origin) expressed in CHO-K1 cells assessed as intracellular calcium flux incubated for 30 mins by Fluo-8 dye based FLIPR analysis.
Assay [5] addresses T4, Muscarinic acetylcholine receptor M5 (Homo sapiens, UniProt P08912).
T4 sequence (P08912 whole entry): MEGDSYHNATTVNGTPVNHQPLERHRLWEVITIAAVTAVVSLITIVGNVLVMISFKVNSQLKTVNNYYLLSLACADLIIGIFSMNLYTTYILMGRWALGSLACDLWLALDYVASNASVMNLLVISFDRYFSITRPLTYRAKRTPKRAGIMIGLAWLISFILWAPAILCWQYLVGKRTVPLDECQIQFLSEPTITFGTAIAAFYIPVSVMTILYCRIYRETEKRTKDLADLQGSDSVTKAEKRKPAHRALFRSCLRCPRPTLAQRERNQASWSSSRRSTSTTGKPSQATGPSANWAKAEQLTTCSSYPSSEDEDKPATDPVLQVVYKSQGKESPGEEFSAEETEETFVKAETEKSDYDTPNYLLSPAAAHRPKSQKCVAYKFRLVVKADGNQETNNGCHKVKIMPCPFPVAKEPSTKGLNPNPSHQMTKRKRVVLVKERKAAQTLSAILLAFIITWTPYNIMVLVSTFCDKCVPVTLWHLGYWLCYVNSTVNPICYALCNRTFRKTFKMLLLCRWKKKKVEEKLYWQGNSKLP
Nature of the assay: Modulatory activity at M5 receptor (unknown origin) expressed in CHO-K1 cells assessed as intracellular calcium flux incubated for 30 mins by Fluo-8 dye based FLIPR analysis.

Muscarinic acetylcholine receptor M3, sequence (P20309 whole entry): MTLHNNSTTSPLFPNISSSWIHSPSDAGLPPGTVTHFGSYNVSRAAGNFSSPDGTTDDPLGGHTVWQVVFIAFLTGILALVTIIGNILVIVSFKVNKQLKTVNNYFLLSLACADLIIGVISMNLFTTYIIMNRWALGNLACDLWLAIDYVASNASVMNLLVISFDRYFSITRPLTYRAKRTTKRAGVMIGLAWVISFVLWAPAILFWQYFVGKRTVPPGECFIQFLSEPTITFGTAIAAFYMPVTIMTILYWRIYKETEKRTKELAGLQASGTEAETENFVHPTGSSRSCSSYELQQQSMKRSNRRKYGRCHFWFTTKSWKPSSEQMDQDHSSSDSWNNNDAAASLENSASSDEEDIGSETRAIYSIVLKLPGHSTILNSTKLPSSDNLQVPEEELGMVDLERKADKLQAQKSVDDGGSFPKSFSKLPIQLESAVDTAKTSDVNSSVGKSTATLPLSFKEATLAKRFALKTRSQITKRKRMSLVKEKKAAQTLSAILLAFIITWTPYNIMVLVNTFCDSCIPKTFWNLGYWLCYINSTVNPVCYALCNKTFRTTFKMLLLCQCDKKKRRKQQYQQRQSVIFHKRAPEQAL

What is called EC50 is the midpoint of the concentration-response curve. For `CCOC(=O)N1CC2(CC[C@@H](N3CCN(c4cccnc4-c4ccc(F)nc4)CC3)C2)C1`, the EC50 in assay [1] is under 0.02 µM; in assay [2], over 10 µM; in assay [3] it was over 10 µM; in assay [4], over 10 µM; in assay [5] it was 0.02 µM.
Turning to `CCOC(=O)N1CC2(CC[C@H](N3CCC(O)(c4cc(F)cnc4-c4cnccn4)CC3)C2)C1`, the EC50 in assay [1] was 0.02 µM; in assay [3], over 10 µM.
On to `CCOC(=O)N1CC2(CC[C@@H](N3CCC(O)(c4cc(F)cnc4-c4cnccn4)CC3)C2)C1`, for which the EC50 is under 0.02 µM in assay [1] and over 10 µM in assay [3].
For the compound `CCOC(=O)N1CC2(CC[C@@H](N3CCN(c4cc(F)cnc4-c4cccc(CO)c4)CC3)C2)C1`, the EC50 in assay [1] was under 0.02 µM; in assay [2], over 10 µM; in assay [4], over 10 µM; in assay [5], over 10 µM.
Turning to `CCOC(=O)N1CC2(CC[C@@H](N3CCN(c4cc(F)cnc4-c4cncs4)CC3)C2)C1`, the EC50 was under 0.02 µM in assay [1]; under 0.02 µM in assay [2]; over 10 µM in assay [3]; over 10 µM in assay [4]; over 10 µM in assay [5].
With `CCOC(=O)N1CC2(CC[C@@H](N3CCN(c4cc(F)cnc4-c4cnn(C(C)C)c4)CC3)C2)C1`, the EC50 was under 0.02 µM in assay [1]; over 10 µM in assay [2]; 0.1 µM in assay [3]; over 10 µM in assay [4]; over 10 µM in assay [5].
For the compound `CCOC(=O)N1CC2(CC[C@@H](N3CCN(c4cc(F)cnc4-c4cnn(C(F)F)c4)CC3)C2)C1`, the EC50 in assay [1] was under 0.02 µM; in assay [2], over 10 µM; in assay [3], under 0.02 µM; in assay [4], over 10 µM; in assay [5] it was over 10 µM.
Turning to `CCOC(=O)N1CC2(CC[C@@H](N3CCN(c4cc(F)cnc4-c4cscn4)CC3)C2)C1`, the EC50 was under 0.02 µM in assay [1] and 0.1 µM in assay [3].
In the case of `CCOC(=O)N1CC2(CC[C@@H](N3CCN(c4cc(F)cnc4-c4cncc(OC)c4)CC3)C2)C1`, the EC50 in assay [1] was under 0.02 µM; in assay [2] it was under 0.02 µM; in assay [3] it was over 10 µM; in assay [4] it was over 10 µM; in assay [5], over 10 µM.
Consider `CCOC(=O)N1CC2(CC[C@@H](N3CCN(c4cc(F)cnc4-c4ccc(=O)n(C)c4)CC3)C2)C1`, for which the EC50 in assay [1] is under 0.02 µM; in assay [2] it was over 10 µM; in assay [3], over 10 µM; in assay [4] it was over 10 µM; in assay [5], over 10 µM.
Regarding `CCOC(=O)N1CC2(CC[C@@H](N3CCN(c4cc(F)cnc4-c4ccc(=O)[nH]c4)CC3)C2)C1`, the EC50 in assay [1] is under 0.02 µM; in assay [2], under 0.02 µM; in assay [3] it was over 10 µM; in assay [4], over 10 µM; in assay [5] it was 0.02 µM.
